Source: ChEMBL document CHEMBL3045422, “Synthesis, characterization, and antimicrobial screening of some Mannich base sydnone derivatives” (2013)
≈ marks a conversion by molar mass, not a printed value.

Experiments:
Type in all cases: functional
Pseudomonas aeruginosa [1] = test: microbe, parasite or virus in culture
Escherichia coli [2] = test: microbe, parasite or virus in culture
Staphylococcus aureus [3] = test: microbe, parasite or virus in culture
Pseudomonas aeruginosa [4] = test: microbe, parasite or virus in culture; conditions: read-out: IZ
Escherichia coli [5] = test: microbe, parasite or virus in culture; conditions: read-out: IZ
Bacillus subtilis [6] = test: microbe, parasite or virus in culture; conditions: read-out: IZ
Staphylococcus aureus [7] = test: microbe, parasite or virus in culture; conditions: read-out: IZ
Bacillus subtilis [8] = test: microbe, parasite or virus in culture
Candida albicans [9] = test: microbe, parasite or virus in culture
Candida albicans [10] = test: Antifungal activity against Candida albicans at 300 ug/ml; conditions: read-out: IZ

Compound	MIC (Pseudomonas aeruginosa [1])	MIC (Escherichia coli [2])	MIC (Staphylococcus aureus [3])	zone of inhibition at 300 µg/mL (Pseudomonas aeruginosa [4])	zone of inhibition at 300 µg/mL (Escherichia coli [5])	zone of inhibition at 300 µg/mL (Bacillus subtilis [6])	zone of inhibition at 300 µg/mL (Staphylococcus aureus [7])	MIC (Bacillus subtilis [8])	MIC (Candida albicans [9])	zone of inhibition at 300 µg/mL (Candida albicans [10])
CN[C@@H]1[C@H](O[C@H]2[C@H](O[C@H]3[C@H](O)[C@@H](O)[C@H](N=C(N)N)[C@@H](O)[C@@H]3N=C(N)N)O[C@@H](C)[C@]2(O)C=O)O[C@@H](CO)[C@H](O)[C@H]1O [STREPTOMYCIN]	0.5 µg/mL (≈ 0.86 µM)	1 µg/mL (≈ 1.72 µM)	0.125 µg/mL (≈ 0.215 µM)	34 mm	28 mm	40 mm	40 mm	0.25 µg/mL (≈ 0.43 µM)	–	–
CC1(C)S[C@@H]2[C@H](NC(=O)[C@H](N)c3ccccc3)C(=O)N2[C@H]1C(=O)O [AMPICILLIN]	100 µg/mL (≈ 286 µM)	100 µg/mL (≈ 286 µM)	250 µg/mL (≈ 715 µM)	29 mm	31 mm	26 mm	30 mm	100 µg/mL (≈ 286 µM)	–	–
COc1ccc(-[n+]2noc([O-])c2CNc2nc3ccc([N+](=O)[O-])cc3s2)cc1	200 µg/mL (≈ 501 µM)	300 µg/mL (≈ 751 µM)	80 µg/mL (≈ 200 µM)	16 mm	12 mm	18 mm	16 mm	40 µg/mL (≈ 100 µM)	100 µg/mL (≈ 250 µM)	17 mm
COc1ccc(-[n+]2noc([O-])c2CNc2nc3cc([N+](=O)[O-])ccc3s2)cc1	500 µg/mL (≈ 1250 µM)	300 µg/mL (≈ 751 µM)	500 µg/mL (≈ 1250 µM)	10 mm	12 mm	10 mm	10 mm	500 µg/mL (≈ 1250 µM)	200 µg/mL (≈ 501 µM)	14 mm
COc1ccc(-[n+]2noc([O-])c2CNc2nc3c([N+](=O)[O-])cccc3s2)cc1	100 µg/mL (≈ 250 µM)	40 µg/mL (≈ 100 µM)	20 µg/mL (≈ 50.1 µM)	18 mm	23 mm	30 mm	27 mm	20 µg/mL (≈ 50.1 µM)	20 µg/mL (≈ 50.1 µM)	32 mm
COc1ccc(-[n+]2noc([O-])c2Cn2c(-c3ccccc3[N+](=O)[O-])nc3ccccc32)cc1	500 µg/mL (≈ 1130 µM)	200 µg/mL (≈ 451 µM)	40 µg/mL (≈ 90.2 µM)	10 mm	14 mm	12 mm	21 mm	300 µg/mL (≈ 677 µM)	200 µg/mL (≈ 451 µM)	14 mm
O=C(O)c1cn(C2CC2)c2cc(N3CCNCC3)c(F)cc2c1=O [CIPROFLOXACIN]	–	25 µg/mL (≈ 75.4 µM)	50 µg/mL (≈ 151 µM)	23 mm	–	31 mm	30 mm	–	–	–
COc1ccc(-[n+]2noc([O-])c2Cn2c(-c3ccc([N+](=O)[O-])cc3)nc3ccccc32)cc1	300 µg/mL (≈ 677 µM)	60 µg/mL (≈ 135 µM)	500 µg/mL (≈ 1130 µM)	12 mm	18 mm	12 mm	10 mm	300 µg/mL (≈ 677 µM)	200 µg/mL (≈ 451 µM)	12 mm
COc1ccc(-[n+]2noc([O-])c2CNc2ccccc2[N+](=O)[O-])cc1	200 µg/mL (≈ 584 µM)	200 µg/mL (≈ 584 µM)	300 µg/mL (≈ 876 µM)	13 mm	14 mm	13 mm	11 mm	200 µg/mL (≈ 584 µM)	200 µg/mL (≈ 584 µM)	14 mm
OC(Cn1cncn1)(Cn1cncn1)c1ccc(F)cc1F [FLUCONAZOLE]	–	–	–	–	–	–	–	–	100 µg/mL (≈ 327 µM)	25 mm
CCOc1ccc2nc(NCc3c([O-])on[n+]3-c3ccc(OC)cc3)sc2c1	200 µg/mL (≈ 502 µM)	300 µg/mL (≈ 753 µM)	200 µg/mL (≈ 502 µM)	13 mm	13 mm	13 mm	14 mm	200 µg/mL (≈ 502 µM)	200 µg/mL (≈ 502 µM)	14 mm
COc1ccc(-[n+]2noc([O-])c2CNc2ccc(F)cc2)cc1	300 µg/mL (≈ 951 µM)	100 µg/mL (≈ 317 µM)	200 µg/mL (≈ 634 µM)	11 mm	17 mm	16 mm	14 mm	200 µg/mL (≈ 634 µM)	100 µg/mL (≈ 317 µM)	17 mm
COc1ccc(-[n+]2noc([O-])c2CNc2nc3ccc(C)cc3s2)cc1	500 µg/mL (≈ 1360 µM)	300 µg/mL (≈ 814 µM)	200 µg/mL (≈ 543 µM)	10 mm	12 mm	18 mm	15 mm	60 µg/mL (≈ 163 µM)	100 µg/mL (≈ 271 µM)	17 mm
COc1ccc(-[n+]2noc([O-])c2CNc2nc3ccc(Cl)cc3s2)cc1	200 µg/mL (≈ 514 µM)	200 µg/mL (≈ 514 µM)	200 µg/mL (≈ 514 µM)	13 mm	13 mm	15 mm	14 mm	200 µg/mL (≈ 514 µM)	100 µg/mL (≈ 257 µM)	16 mm
COc1ccc(-[n+]2noc([O-])c2CNc2nc3ccc(Br)cc3s2)cc1	200 µg/mL (≈ 462 µM)	300 µg/mL (≈ 692 µM)	100 µg/mL (≈ 231 µM)	12 mm	11 mm	15 mm	18 mm	100 µg/mL (≈ 231 µM)	80 µg/mL (≈ 185 µM)	21 mm
COc1ccc(-[n+]2noc([O-])c2Cn2cnc3ccccc32)cc1	500 µg/mL (≈ 1550 µM)	500 µg/mL (≈ 1550 µM)	300 µg/mL (≈ 931 µM)	10 mm	10 mm	11 mm	11 mm	300 µg/mL (≈ 931 µM)	300 µg/mL (≈ 931 µM)	12 mm
COc1ccc(-[n+]2noc([O-])c2CNc2ccc(Br)cc2)cc1	200 µg/mL (≈ 532 µM)	300 µg/mL (≈ 797 µM)	300 µg/mL (≈ 797 µM)	13 mm	12 mm	13 mm	10 mm	200 µg/mL (≈ 532 µM)	200 µg/mL (≈ 532 µM)	15 mm
COc1ccc(-[n+]2noc([O-])c2CNc2nc3ccc(F)cc3s2)cc1	500 µg/mL (≈ 1340 µM)	300 µg/mL (≈ 806 µM)	300 µg/mL (≈ 806 µM)	10 mm	12 mm	12 mm	12 mm	200 µg/mL (≈ 537 µM)	200 µg/mL (≈ 537 µM)	13 mm
COc1ccc(-[n+]2noc([O-])c2CNc2ccccc2Cl)cc1	500 µg/mL (≈ 1510 µM)	300 µg/mL (≈ 904 µM)	300 µg/mL (≈ 904 µM)	10 mm	12 mm	12 mm	12 mm	300 µg/mL (≈ 904 µM)	300 µg/mL (≈ 904 µM)	12 mm
COc1ccc(-c2nc3ccccc3n2Cc2c([O-])on[n+]2-c2ccc(OC)cc2)cc1	300 µg/mL (≈ 700 µM)	300 µg/mL (≈ 700 µM)	300 µg/mL (≈ 700 µM)	12 mm	15 mm	12 mm	11 mm	200 µg/mL (≈ 467 µM)	200 µg/mL (≈ 467 µM)	14 mm
COc1ccc(-[n+]2noc([O-])c2Cn2c(-c3ccccc3Br)nc3ccccc32)cc1	200 µg/mL (≈ 419 µM)	200 µg/mL (≈ 419 µM)	500 µg/mL (≈ 1050 µM)	13 mm	14 mm	12 mm	10 mm	300 µg/mL (≈ 629 µM)	200 µg/mL (≈ 419 µM)	13 mm
COc1ccc(-[n+]2noc([O-])c2CNc2nc3ccc(C#N)cc3s2)cc1	500 µg/mL (≈ 1320 µM)	300 µg/mL (≈ 791 µM)	80 µg/mL (≈ 211 µM)	10 mm	12 mm	17 mm	16 mm	60 µg/mL (≈ 158 µM)	100 µg/mL (≈ 264 µM)	17 mm
COc1ccc(-[n+]2noc([O-])c2CNc2cc(Cl)ccc2Cl)cc1	500 µg/mL (≈ 1370 µM)	500 µg/mL (≈ 1370 µM)	300 µg/mL (≈ 819 µM)	10 mm	10 mm	12 mm	11 mm	300 µg/mL (≈ 819 µM)	300 µg/mL (≈ 819 µM)	13 mm
CC1(C)S[C@@H]2[C@H](NC(=O)Cc3ccccc3)C(=O)N2[C@H]1C(=O)O [PENICILLIN G]	0.25 µg/mL (≈ 0.748 µM)	0.5 µg/mL (≈ 1.5 µM)	0.125 µg/mL (≈ 0.374 µM)	38 mm	30 mm	35 mm	45 mm	0.25 µg/mL (≈ 0.748 µM)	–	–
COc1ccc(NCc2c([O-])on[n+]2-c2ccc(OC)cc2)cc1	100 µg/mL (≈ 305 µM)	200 µg/mL (≈ 611 µM)	80 µg/mL (≈ 244 µM)	14 mm	12 mm	18 mm	16 mm	100 µg/mL (≈ 305 µM)	200 µg/mL (≈ 611 µM)	20 mm
COc1ccc(-[n+]2noc([O-])c2CNc2ccc(C)cc2)cc1	200 µg/mL (≈ 642 µM)	200 µg/mL (≈ 642 µM)	200 µg/mL (≈ 642 µM)	13 mm	13 mm	14 mm	13 mm	200 µg/mL (≈ 642 µM)	200 µg/mL (≈ 642 µM)	16 mm
COc1ccc(-[n+]2noc([O-])c2CNc2ccc(Cl)cc2)cc1	300 µg/mL (≈ 904 µM)	300 µg/mL (≈ 904 µM)	200 µg/mL (≈ 603 µM)	13 mm	13 mm	13 mm	12 mm	200 µg/mL (≈ 603 µM)	80 µg/mL (≈ 241 µM)	18 mm
